Test results from patent publication US20250109135A1, “NOVEL ISOINDOLINONE DERIVATIVE COMPOUNDS AS CASPASE INHIBITORS” (INNOVO THERAPEUTICS INC., priority 2022, published 2025).
Like-named read-outs stand apart in the source and are kept apart here.

Assays:
[1] = target: T1, recombinant human Caspase-1 (Homo sapiens, UniProt P29466); assay: Caspase-1 inhibitory activity, fluorescent substrate Ac-YVAD-AFC; format: biochemical
T1 construct: purchased Enzo life science
T1 sequence (P29466 120-297 limits assumed): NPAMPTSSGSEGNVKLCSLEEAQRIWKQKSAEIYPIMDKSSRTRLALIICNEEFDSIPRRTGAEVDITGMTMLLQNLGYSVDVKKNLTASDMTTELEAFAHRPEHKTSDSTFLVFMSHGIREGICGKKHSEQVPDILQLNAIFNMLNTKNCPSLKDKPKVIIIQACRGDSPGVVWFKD
T1 sequence (P29466 317-404 limits assumed): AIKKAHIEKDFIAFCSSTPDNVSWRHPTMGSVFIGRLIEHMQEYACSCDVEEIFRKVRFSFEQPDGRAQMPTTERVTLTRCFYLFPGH
Description: To determine the Caspase-1 inhibitory activity of the compounds of the present invention prepared in Example, Caspase-1 activity was measured using a substrate with a fluorescent dye attached to it. […] The compound was dissolved in DMSO and stored at −20° C. Enzymatic reactions were carried out in a buffer comprising 50 mM HEPES (pH 8.0), 50 mM KCl, 200 mM NaCl, 10 mM DTT, 0.1% CHAPS (w/v). Enzyme inactivation was measured in the presence of different concentrations of the compound using the fluorescent substrate N-Acetyl-Tyr-Val-Ala-Asp-7-amido-4-trifluoromethylcoumarin (Ac-YVAD-AFC) (Sigma) at a concentration of 50 μM and 1 unit of recombinant human Caspase-1 (Enzo life science). A CLARIOstar Plus spectrometer (BMG Labtech) was used to measure the reaction rate as a function of time in the 400/505 nm (Ex/Em) wavelength band. […] If kobs/[I] is 20 or more, it is denoted as A, if it is 10 or more but less than 20, it is denoted as B, if it is 1 or more but less than 10, it is denoted as C, and if it is less than 1, it is denoted as D.
In the above equation, At means the enzyme reaction rate at time t (min), and Amax means the maximum reaction rate.

Jurkat cells = assay: Apoptosis inhibition activity in human T-lymphocyte cells Jurkat (anti-FAS antibody, intracellular ATP); format: cell-based; details: compound 50 nM, 1 μg/ml anti-FAS antibody 24 h, ATP luminescence
Description: To evaluate the effect of the compound of the present invention on apoptosis, Jurkat (ATCC) cells were treated with anti-FAS antibody CH-11 (Merck) to induce apoptosis via the Fas (CD95) receptor, which was assessed by the amount of intracellular ATP.
Jurkat cells were cultured in RPMI 1640 growth medium comprising 10% FBS and antibiotics (100 U/ml Penicillin, 0.1 mg/ml Streptomycin) under 37° C., 5% CO2 conditions. Cultured cells were seeded in growth medium to a concentration of 8×10^4 cells/well in 96-well plates (SPL), pretreated with compound at a concentration of 50 nM for 1 hour, and then treated with 1 μg/ml anti-FAS antibody for 24 hours in an incubator. After 24 h, an ATP lite Luminescence assay kit (PerkinElmer) was used to measure ATP and luminescence was measured at 580 nm using a CLARIOstar Plus spectrometer. If the inhibitory activity is 30% or more, it is denoted as a′, if it is 20% or more but less than 30%, it is denoted as b′, if it is 10% or more but less than 20%, it is denoted as c′, and if it is less than 10%, it is denoted as d′.

[2] = test system: Secreted IL-1β in THP-1 cells; assay: Interleukin-1β inhibitory activity in human monocytic cells THP-1 (ELISA); format: cell-based; details: compound 100 nM, PMA-differentiated THP-1, LPS 10 μg/ml then 5 mM ATP, 24 h
Description: Caspase-1 is known as […] (ICE). Activated Caspase-1 is involved in the cleavage of pro-form IL-1β to produce the mature form, which is then secreted to induce inflammation. Therefore, the compounds identified in Experimental example 1 were tested to determine if their Caspase-1 inhibitory activity affected the production of […].
THP-1 (ATCC) cells were cultured in RPMI 1640 (Hyclone) growth medium comprising 10% Fetal bovine serum (FBS, Gibco) and antibiotics (100 U/ml Penicillin, 0.1 mg/ml Streptomycin, Cytiva) under 37° C., 5% CO2 conditions. Cultured THP-1 cells were seeded in growth medium to a concentration of 3×10^5 cells/well in 24-well plates (Celvest) and then treated with 1 μM Phorbol 12-myristate 13-acetate (PMA) (Sigma) for 24 hours to induce differentiation. Differentiated THP-1 were pre treated with 10 μg/ml Lipopolysaccharide (LPS, from E. coli 0111:B4 (InvivoGen)) in serum free RPMI 1640 medium for 24 hours to induce an inflammatory response. After removal of LPS, the compounds were pretreated for 1 h at a concentration of 100 nM using the same medium, followed by the addition of 5 mM ATP (InvivoGen) and incubation for 24 h in an incubator. The treated medium was collected and centrifuged, and IL-1β was quantified using an Enzyme linked immunoassay kit (ELISA kit, R&D system), and absorbance was measured at 450 nm using a CLARIOstar Plus spectrometer. Inhibitory activity was denoted as a if it was 50% or more, b if it was 30% or more but less than 50%, c if it was 10% or more but less than 30%, and d if it was less than 10%.

[3] = pH 8, 1 unit recombinant human Caspase-1, 50 μM Ac-YVAD-AFC, read-out: kobs/[I] Caspase-1
[4] = pH 8, read-out: kobs/[I] Caspase-1

| Compound | kinact/KI [1, 3] [M⁻¹ s⁻¹] | inhibition at 0.05 µM (Jurkat cells) [%] | inhibition at 0.1 µM [2] [%] | kinact/KI [1, 4] [M⁻¹ s⁻¹] |
| --- | --- | --- | --- | --- |
| CCC(C(=O)NC(CC(=O)O)C(=O)CF)N1Cc2ccc(-c3coc4ccccc34)cc2C1=O (stereo not drawn) [Compound 22, 3-(2-(6-(benzofuran-3-yl)-1-oxoisoindolin-2-yl)butanamido)-5-fluoro-4-oxopentanoic acid] | > 0.333 | 10 to 20 | 30 to 50 | – |
| CCC(C(=O)NC(CC(=O)O)C(=O)CF)N1Cc2ccc(-c3ccc4occc4c3)cc2C1=O (stereo not drawn) [Compound 26, 3-(2-(6-(benzofuran-5-yl)-1-oxoisoindolin-2-yl)butanamido)-5-fluoro-4-oxopentanoic acid] | 0.0167 to 0.167 | ≥ 30 | 30 to 50 | – |
| O=C(O)CC(NC(=O)CN1Cc2ccc(-c3coc4ccccc34)cc2C1=O)C(=O)CF (stereo not drawn) [Compound 39, 3-(2-(6-(benzofuran-3-yl)-1-oxoisoindolin-2-yl)acetamido)-5-fluoro-4-oxopentanoic acid] | – | < 10 | < 10 | 0.0167 to 0.167 |
| CC(C)[C@@H](C(=O)NC(CC(=O)O)C(=O)CF)N1Cc2ccc(-c3ccc4[nH]c(=O)[nH]c4c3)cc2C1=O (stereo partly drawn) [Compound 45, 5-fluoro-3-((S)-3-methyl-2-(1-oxo-6-(2-oxo-2,3-dihydro-1H-benzo[d]imidazol-5-yl)isoindolin-2-yl)butanamido)-4-oxopentanoic acid] | – | 10 to 20 | 30 to 50 | 0.0167 to 0.167 |
| CCC(C(=O)NC(CC(=O)O)C(=O)CF)N1Cc2ccc(-c3ccc4[nH]c(=O)[nH]c4c3)cc2C1=O (stereo not drawn) [Compound 8, 5-fluoro-4-oxo-3-(2-(1-oxo-6-(2-oxo-2,3-dihydro-1H-benzo[d]imidazol-5-yl)isoindolin-2-yl)butanamido)pentanoic acid] | 0.0167 to 0.167 | 10 to 20 | ≥ 50 | – |
| CCC(C(=O)NC(CC(=O)O)C(=O)CF)N1Cc2ccc(-c3cn[nH]c3)cc2C1=O (stereo not drawn) [Compound 5, 5-fluoro-4-oxo-3-(2-(1-oxo-6-(1H-pyrazol-4-yl)isoindolin-2-yl)butanamido)pentanoic acid] | 0.0167 to 0.167 | 10 to 20 | 30 to 50 | – |
| CCC(C(=O)NC(CC(=O)O)C(=O)CF)N1Cc2ccc(-c3cccnc3)cc2C1=O (stereo not drawn) [Compound 4, 5-fluoro-4-oxo-3-(2-(1-oxo-6-(pyridin-3-yl)isoindolin-2-yl)butanamido)pentanoic acid] | 0.0167 to 0.167 | 10 to 20 | 30 to 50 | – |
| CC[C@@H](C(=O)N[C@@H](CC(=O)O)C(=O)COc1c(F)c(F)cc(F)c1F)N1Cc2ccc(-c3coc4ccccc34)cc2C1=O [Compound 50, (S)-3-((S)-2-(6-(benzofuran-3-yl)-1-oxoisoindolin-2-yl)butanamido)-4-oxo-5-(2,3,5,6-tetrafluorophenoxy)pentanoic acid] | 0.167 to 0.333 | ≥ 30 | ≥ 50 | – |
| CCC(C(=O)NC(CC(=O)O)C(=O)CF)N1Cc2ccc(-c3ccc4c(c3)OCCO4)cc2C1=O (stereo not drawn) [Compound 27, 3-(2-(6-(2,3-dihydrobenzo[b][1,4]dioxin-6-yl)-1-oxoisoindolin-2-yl)butanamido)-5-fluoro-4-oxopentanoic acid] | 0.0167 to 0.167 | ≥ 30 | 10 to 30 | – |
| CC[C@@H](C(=O)NC(CC(=O)O)C(=O)CF)N1Cc2cc(-c3ccc4c(c3)OCCO4)ccc2C1=O (stereo partly drawn) [Compound 58, 3-((S)-2-(5-(2,3-dihydrobenzo[b][1,4]dioxin-6-yl)-1-oxoisoindolin-2-yl)butanamido)-5-fluoro-4-oxopentanoic acid] | – | 10 to 20 | 10 to 30 | 0.0167 to 0.167 |
| CC[C@@H](C(=O)N[C@H](CC(=O)O)C(=O)COc1c(F)c(F)cc(F)c1F)N1Cc2ccc(-c3ccc4c(c3)OCCO4)cc2C1=O [Compound 54, (R)-3-((S)-2-(6-(2,3-dihydrobenzo[b][1,4]dioxin-6-yl)-1-oxoisoindolin-2-yl)butanamido)-4-oxo-5-(2,3,5,6-tetrafluorophenoxy)pentanoic acid] | 0.0167 to 0.167 | < 10 | 30 to 50 | – |
| CC(C)[C@@H](C(=O)NC(CC(=O)O)C(=O)CF)N1Cc2ccc(-c3coc4ccccc34)cc2C1=O (stereo partly drawn) [Compound 44, 3-((S)-2-(6-(benzofuran-3-yl)-1-oxoisoindolin-2-yl)-3-methylbutanamido)-5-fluoro-4-oxopentanoic acid] | 0.167 to 0.333 | 20 to 30 | ≥ 50 | – |
| CC[C@@H](C(=O)NC(CC(=O)O)C(=O)CF)N1Cc2ccc(-c3ccc4c(c3)OCCO4)cc2C1=O (stereo partly drawn) [Compound 55, 3-((S)-2-(6-(2,3-dihydrobenzo[b][1,4]dioxin-6-yl)-1-oxoisoindolin-2-yl)butanamido)-5-fluoro-4-oxopentanoic acid] | 0.0167 to 0.167 | ≥ 30 | 30 to 50 | – |
| CCC(C(=O)NC(CC(=O)O)C(=O)CF)N1Cc2ccc(N3CCn4cc(C(F)(F)F)nc4C3)cc2C1=O (stereo not drawn) [Compound 10, 5-fluoro-4-oxo-3-(2-(1-oxo-6-(2-(trifluoromethyl)-5,6-dihydroimidazo[1,2-a]pyrazin-7(8H)-yl)isoindolin-2-yl)butanamido)pentanoic acid] | 0.0167 to 0.167 | 10 to 20 | 30 to 50 | – |
| CCC(C(=O)NC(CC(=O)O)C(=O)CF)N1Cc2ccc(-c3ccc(OC)nc3)cc2C1=O (stereo not drawn) [Compound 13, 5-fluoro-3-(2-(6-(6-methoxypyridin-3-yl)-1-oxoisoindolin-2-yl)butanamido)-4-oxopentanoic acid] | 0.0167 to 0.167 | 20 to 30 | ≥ 50 | – |
| CC[C@@H](C(=O)NC(CC(=O)O)C(=O)CF)N1Cc2cc(-c3coc4ccccc34)ccc2C1=O (stereo partly drawn) [Compound 57, 3-((S)-2-(5-(benzofuran-3-yl)-1-oxoisoindolin-2-yl)butanamido)-5-fluoro-4-oxopentanoic acid] | – | 20 to 30 | 10 to 30 | 0.0167 to 0.167 |
